Earlier results on nine compounds are cited in US10399716B2, “Personal care compositions and hangers” (The Procter & Gamble Company, priority 2014, dated 2019).

Turning to `C=CCCCCCCCCC(=O)O` [Undecylenic Acid], the “Log (water Solubility in mol/L)” value is −3.15 log mol/L.

In the case of `Oc1cc(Cl)ccc1Oc1ccc(Cl)cc1Cl` [Triclosan], the “Log (water Solubility in mol/L)” value is given as −2.46 log mol/L.

On to `CCCCCCC(O)CO` (stereo not drawn) [caprylyl glycol], for which the “Log (water Solubility in mol/L)” value was −3.08 log mol/L.

As to `O=C(O)c1ccccc1O` [Salicylic acid], the “Log (water Solubility in mol/L)” value is recorded as −1.41 log mol/L.

For the compound `CCOC(=O)c1ccc(O)cc1` [ethyl paraben], the “Log (water Solubility in mol/L)” value is recorded as −1.91 log mol/L.

Take `OCc1ccccc1` [benzyl Alcohol]: the “Log (water Solubility in mol/L)” value is −0.47 log mol/L.

Consider `OCCc1ccccc1` [phenethyl alcohol], for which the “Log (water Solubility in mol/L)” value is reported as −0.83 log mol/L.

As to `C/C=C/C=C/C(=O)O` [sorbic acid], the “Log (water Solubility in mol/L)” value was −0.33 log mol/L.

Turning to `OCCOc1ccccc1` [Phenoxyethanol], the “Log (water Solubility in mol/L)” value is −0.64 log mol/L.
